# Test results: US20210260096A1, “PHARMACEUTICAL COMPOSITION FOR TREATING WOUND OR ACTIVATING SKIN, CONTAINING BETA-GLUCAN, GLYCITIN, AND 4',6,7-TRIMETHOXYISOFLAVONE” (Quegen Biotech Co., Ltd., priority 2018, published 2021)
# Legend:
# [1] = tested on: human keratinocytes (HaCaTs); assay: Differentiation, migration and invasion of epithelial cells under β-glucan single treatment; type: cell-based; conditions: 0.5% β-glucan among 0 to 10%; FIG. 1
# Description: (§1) The differentiation, migration and invasion of epithelial cells, such as human keratinocytes, and the differentiation of fibroblasts according to the single treatment of β-glucan were examined. β-glucan was produced by QUEGEN BIOTECH Co., LTD and used. Human dermal fibroblasts and human keratinocytes were purchased from Korean Cell Line Bank and used. The human dermal fibroblasts (HDFs) or the human keratinocytes (HaCaTs) were seeded in a 6-well plate containing […] of 10% FBS-containing DMEM at 1×10^4 cells/well (HDF) and 5×10^4 cells/well (HaCaT), and cultured under conditions of 37° C. and 5% CO2. During culture, the concentration of the epithelial cells (HaCaTs) and the fibroblasts were treated with 200 μL of β-glucan to have a concentration of 0 to 10% in a concentration dependent manner.
# [2] = tested on: human dermal fibroblasts (HDFs); assay: Differentiation of fibroblasts under β-glucan single treatment; type: cell-based; conditions: β-glucan 0 to 10%; FIG. 1
# Description: as §1
# HaCaTs and HDFs = assay: Proliferation and migration in Transwell HaCaT/HDF co-culture by composition of mixed solution; type: cell-based, human; conditions: with respect to control PBS, 24 hours
# Description: 5×10^4 cells/well of HaCaTs were seeded in the upper part and 1×10^4 cells/well of HDFs were seeded in the lower part of a Transwell invasion kit, […] of 10% FBS-containing DMEM and the three kinds of test solutions were treated and incubated under conditions of 37° C. and 5% CO2 for 24 hours, followed by determining an optimal concentration condition.
substance,measurement,setting,value
β-glucan,"differentiation, migration and invasion of epithelial cells by concentration",[1],optimal results
same,differentiation of the fibroblasts,[2],no significant change
same,Migration (%),HaCaTs and HDFs; 0.1%,110%
same,Proliferation (%),HaCaTs and HDFs; 0.1%,105%
same,Migration (%),HaCaTs and HDFs; 0.25%,130%
same,Proliferation (%),HaCaTs and HDFs; 0.25%,111%
same,Migration (%),HaCaTs and HDFs; 0.5%,151%
same,Proliferation (%),HaCaTs and HDFs; 0.5%,120%
same,Migration (%),HaCaTs and HDFs; 0.7%,153%
same,Proliferation (%),HaCaTs and HDFs; 0.7%,125%
same,Migration (%),HaCaTs and HDFs; 1.0%,161%
same,Proliferation (%),HaCaTs and HDFs; 1.0%,122%
same,Migration (%),HaCaTs and HDFs; 1.5%,110%
same,Proliferation (%),HaCaTs and HDFs; 1.5%,118%
